Test results taken from patent US12037350B2, “Compositions and methods for the prevention and/or treatment of mitochondrial disease, including Friedreich's ataxia” (Stealth BioTherapeutics Inc., priority 2020, dated 2024).
pEC50: −log10 of the molar value. “Also recorded” adds a separate entry of the source.

Tests used:
[1] = tested on: frataxin deficient fibroblasts (GM03665) from Friedreich's ataxia patient; assay: Frataxin Deficient Fibroblast Viability Assay (BSO Assay); format: cell-based; conditions: for pEC50: Homo sapiens, Fibroblast, FA patient fibroblasts pretreated with compound, BSO 10 mM, MTT after 48 hrs
Procedure: Example 12: Frataxin Deficient Fibroblast Viability Assay (the “BSO Assay”)
This Example was used to evaluate the various new compositions for their potential efficacy in the treatment of Friedreich's Ataxia (FA or FRDA)—substantially as described in the above cited Reference (Matthias et al.).
The stock solutions of the test articles (and control compounds) were prepared in dimethyl sulfoxide (DMSO at 10 mM), Working stock solutions (2 times concentrated) were prepared on the day of the experiment in respective cell culture medium to be used for assay (detailed medium description below). A listing of compounds used as test articles in this Example 12 are found in Table 1, below.
A patient derived frataxin deficient fibroblast cell line was obtained from Coriell Institute. More specifically, the following cell lines/DNA samples were obtained from the NIGMS Human Genetic Cell Repository at the Coriell Institute for Medical Research: GM03665. To evaluate importance of various growth conditions on cell susceptibility to BSO toxicity cells were grown on:
MEM (Sigma-Aldrich) 15% Fetal Bovine Serum (FBS) without growth factors;
MEM (Sigma-Aldrich) 15% FBS with growth factors (Catalogue number 100-18B, Recombinant Human FGF-basic (154 a.a.) and catalogue number AF-100-15, Animal-Free Recombinant Human EGF from Peprotech);
MEM199/MEM EBS (Bioconcept Ltd.) 10% FBS, insulin 10 μg/ml, L-glutamine 2 mM with growth factors (Catalogue number 100-18B, Recombinant Human FGF-basic (154 a.a.) and catalogue number AF-100-15, Animal-Free Recombinant Human EGF from Peprotech).
To conduct an experiment, fibroblast cells (from all growth conditions) were seeded (100 μL (cells 3×10^3/well) on 96-well plates in MEM199/MEM EBS medium 10% FBS, insulin 10 μg/mL, L-glutamine 2 mM with growth factors and allowed to grow on plate for 24 hrs. After 24 hrs., media was removed and then test compounds of interest were added (100 μL, 2 times concentrated stock) to 96-well plates (end DM80 concentration not exceeding 0.5%) and incubated for 24 hours. Then L-buthionine-sulfoximine (BSO, from Acros Organics, Cat. No. 235520010) was added (100 μL, 2 times concentrated stock) at end concentrations ranging from 1 to 10 mM. Both test compounds and BSO were dissolved in MEM199/MEM EBS medium 10% FBS, insulin 10 μg/mL, L-glutamine 2 mM with growth factors. Cell viability was monitored and either after 24- or 48-hours cell viability was assayed by MTT (Thiazolyl blue tetrazolium bromide) assay. For the MTT assay, media was removed and 100 μL of MTT 1 mg/mL was added, incubated for 2 hours at +37° C., then medium was removed and 100 μL of isopropanol added to dissolve sediment. Absorption was measured at 570 (OD570) and 650 (QD650) nm wavelengths. Control cells (vehicle instead of BSO and compound) and vehicle control (with BSO, but vehicle instead of test compound) were treated in the same manner as ceils with BSO and compound. All cell media contained penicillin and streptomycin 100 U/mL each.
Absorption readouts were processed as follows: ValueΔ=ValueOD570−ValueOD650 and the obtained values were used to calculate cell viability as % of control cell (i.e., no BSO, no compound, just vehicle) viability.
Except as otherwise indicated in Table 1, all samples were run in at least 3 replicates for test compounds and at least 8 replicates for controls (i.e., both control (no BSO, no compound) and vehicle control (i.e., with BSO, no compound). Exact N per data points are indicated in the figures/table legends. Results for the compounds (test articles and controls) tested are listed in Table 1, below.
This is a cell-based assay measuring cytotoxicity which results from oxidative stress subsequent to depletion of endogenous glutathione defense mechanisms. The cells were primary Friedreich Ataxia (FA) patient fibroblasts which were incubated for 48 hrs. in BSO, an inhibitor of gamma glutamyl synthetase, an enzyme required for glutathione production. […]

[2] = tested on: HepG2 human hepatocarcinoma cells; assay: Rotenone ATP Assay (Complex I by-pass assay); format: cell-based
Procedure: Example 13: Rotenone ATP Assay (a Complex I by-Pass Assay)
This assay has been adapted from Haefeli R H, Erb M, Gemperli A C, Robay D, Courdier Fruh I, et al. (2011) NQO1-Dependent Redox Cycling of Idebenone: Effects on Cellular Redox Potential and Energy Levels. PLoS ONE 6(3): e17963. HepG2 human hepatocarcinoma cells are co-incubated with the electron transport chain complex I toxin rotenone +/− compounds of interest and the corresponding effect on ATP synthesis is measured with a bioluminescent substrate.
The stock solutions of the test articles (See Table 1, below for a list of the test articles examined using this assay) were prepared in dimethyl sulfoxide (DMSO at 10 mM). Working stock solutions were prepared on the day of the experiment in glucose free, serum free Dulbecco's modified Eagles medium (DMEM) supplemented with 50 micromolar rotenone.
In brief, HepG2 cells were plated at 25,000 cells per well in low glucose (1 gram/Liter) DMEM medium+10% fetal calf serum and incubated for 24 hours. The following day, the media was decanted and subsequently replaced with glucose free/serum free DMEM which has been supplemented with 50 micromolar rotenone and compound of interest. Serial dilutions of compound were prepared in 3× dilutions beginning at 25 micromolar. The cells were incubated for 60 minutes in a humidified tissue culture incubator. Following incubation, ATP levels were quantified via bioluminescent assay (Promega […] Glo Assay kit) and readings were captured on a standard microplate reader.
ATP bioluminescence is plotted versus the log of compound of interest and data are used to generate EC50 values. Curve fitting is performed using a sigmoidal dose response curve fit function (GraphPad Prism software).
EC50 values were derived from seven-point dose response curves performed on n=3 technical replicates per dose. Robustness of curve fit was assessed as a quality control measure, with an R squared value of at least 0.80 being required for a successful curve fit. Compounds of interest showing an increase in ATP bioluminescence relative to vehicle control were verified in an independent biological replicate of n=3 technical replicates per dose.
This assay is a direct measure of the ability of compounds of interest to restore ATP production under conditions of inhibition of Complex I of the mitochondrial electron transport chain. As the majority of ATP produced via the electron transport chain is thought to derive from Complex I activity, significant impairment in Complex I function has dire biological consequences. Of note, Complex I mutations are thought to drive pathophysiology in multiple mitochondrial diseases, including Leigh syndrome and Leber's Hereditary Optic Neuropathy (LHON), while diminished Complex I activity and the resultant attenuation of ATP production has been shown in neurodegenerative diseases, including Friedreich's Ataxia, Parkinson's Disease and Huntington's Disease. In brief, most compounds were tested in the Rotenone Oxygraph Assay instead of this assay but only Idebenone was active amongst Omaveloxolone, Idebenone and Vatiquinone.

HepG2 cells = assay: Rotenone Oxygraph Assay (high-resolution respirometry of intact HepG2 cells); format: cell-based, human
Procedure: Example 15: Rotenone Oxygraph Assay (High-Resolution Respirometry of Intact HepG2 Cells)
The Oxygraph-2k (O2k, OROBOROS INSTRUMENTS, Austria) was used for measurements of respiration of intact cells. The respirometry was performed in Dulbecco's Modified Eagle Medium (DMEM) high glucose without supplements. All experiments were performed at 37° C.
HepG2 cells (ATCC collection code HB-8065™) were cultured in 10 cm^2 culture dishes in DMEM high glucose medium supplemented with 10% fetal bovine serum (FBS) and 100 units/mL penicillin and 100 μg/mL streptomycin until approximately 90% confluence was reached. Immediately prior to performing the respirometric assay, the cells were washed with media without FBS, trypsinized and resuspended in DMEM high glucose without FBS.
The final concentration of intact cells in the O2k-chamber was 0.5-10^6/mL. After stabilization of respiration, the Complex I inhibitor, rotenone, at 1 μM final concentration was added to inhibit electron flux via Complex I. Then, compound to be tested was added at 10 μM final concentration, and the change in respiration rate of intact cells was monitored. […]

[3] = tested on: GM03665 cells (fibroblasts from a subject with Friedreich's ataxia); assay: RSL-3 Toxicity Assay (RSL-3 Assay); format: cell-based, human
Text: Example 14: RSL-3 Toxicity Assay (RSL-3 Assay)
This assay has been adapted from: Hinman, A., Holst, C. R., Latham, J. C., Bruegger, J. J., Ulas, G., McCusker, K. P., Amagata, A., Davis, D., Hoff, K. G., Kahn-Kirby, A. H., Kim, V., Kosaka, Y., Lee, E., Malone, S. A., Mei, J. J., Richards, S. J., Rivera, V., Miller, G., Trimmer, J. K., Shrader, W. D., “Vitamin E hydroquinone is an endogenous regulator of ferroptosis via redox control of 15-lipoxygenase”, (2018) PLoS ONE 13(8): e0201369.
In brief, GM03665 cells (Coriell Institute) were seeded in 96-well plates (Sarstedt) in DMEM cell culture media containing 10% Fetal Bovine serum and 1% Penicillin-Streptomycin (Pen-Strep) antibiotic mix at the amount of 2×10^4/mL (100 μL or 2×10^3 cells per well). Cells were left to rest overnight at 37° C. in a humidified atmosphere with 5% CO2 to allow attachment of the cells to the culture plate. Test compounds were prepared as DMSO stocks (10 mM) and were serially diluted in cell culture media to obtain 2× working solutions. Cell media was discarded and replaced by 50 μL of test compound solutions or cell media with vehicle for control wells. Within 15 minutes, 2× working solution (4 μM) of 1S,3R-RSL-3 (CAS #1219810-16-8, Sigma-Aldrich) (diluted from 5 mM DMSO stock in cell culture media) was added. Final reaction volume was 100 μL and final DMSO concentration in reaction was kept below 0.2% (v/v) and equal in all wells. Final RSL-3 concentration was 2 μM and test compound final concentrations in reaction were up to 1000 nM. After 24 hours of incubation cell viability was assessed by MTT test. MTT (Sigma-Aldrich) solution 1 mg/mL in IX PBS (pH=7.4) was prepared 1 hour before the assay and filtered through Filtropur S 0.2 filters (Sarstedt). Cell media with test compounds was discarded and 100 μL of MTT solution was added to cells. The plates were incubated for 2 hours at +37° C. Thereafter, the MTT solution was removed and 100 μL of isopropanol was added to dissolve sediment. Absorption at 570 and 650 nm was measured using Hidex Sense microplate reader.
Compounds A and B and idebenone were not examined in this assay. The data presented in Table 1 indicates omaveloxolone was not active in this assay but that vatiquinone was active.
Discussion—Both BSO and RSL-3 are frequently utilized to induce the regulated cell death pathway known as ferroptosis. Ferroptosis is thought to require the joint activity of iron catalyzed oxidative stress and lipid peroxidation and has been described in cell and animal models of multiple neurodegenerative diseases, including Friedreich's Ataxia, Huntington Disease, Parkinson Disease and Alzheimer's Disease. […] Of note, the results for Compounds C-I and K were favorable with respect to inhibition of ferroptotic cell death when either BSO or RSL3 were used as initiating stimulus, differentiating these compounds from omaveloxolone and idebenone.

SMILES | pEC50 [1] | Complex I by-pass activity in Rotenone ATP Assay (in words) [2] | pEC50 ([2]; Homo sapiens, 1 h, HepG2, 50 micromolar rotenone, 60 minutes, ATP bioluminescence) | protection against BSO induced cell death (in words) ([1]; BSO Assay, text statement) | Complex I by-pass activity in Rotenone Oxygraph Assay (in words) (HepG2 cells) | activation at 10 µM (HepG2 cells; Homo sapiens, intact HepG2 cells, rotenone 1 μM, compound 10 μM, increase in respiration rate) [%] | ATP Rotenone Assay EC50 ([2]; HepG2, 50 micromolar rotenone, 60 minutes, ATP bioluminescence) | protection against RSL-3 toxicity (in words) [3] | pEC50 ([3]; Homo sapiens, Fibroblast, GM03665 cells, RSL-3 2 μM, 24 hours, MTT) | Rotenone Oxygraph Assay % Increase (HepG2 cells; intact HepG2 cells, rotenone 1 μM, compound 10 μM, increase in respiration rate)
COC1=C(OC)C(=O)C(C/C=C(\C)CC/C=C(\C)CCC=C(F)F)=C(C)C1=O [Compound B, 2-((2E,6E)-11,11-difluoro-3,7-dimethylundeca-2,6,10-trien-1-yl)-5,6-dimethoxy-3-methylcyclohexa-2,5-diene-1,4-dione] | 6.70 | comparable to that of Idebenone | 5.99 | – | – | – | – | – | – | –
COC1=C(OC)C(=O)C(CCCCCCCCCCO)=C(C)C1=O [Idebenone, reference compound] | < 6.00 | active | – | not really very protective at all; also recorded: only very weakly active | active | 70.2 | – | – | – | –
CC(C)=CCC/C(C)=C/CC/C(C)=C/CC[C@@](C)(O)CCC1=C(C)C(=O)C(C)=C(C)C1=O [Vatiquinone, reference compound] | – | inactive | – | – | inactive | – | Inactive | active | 7.25 | Inactive
